Peptide text beside a SMILES is read from it. * marks the point of attachment. Cbz = O=C(OCc1ccccc1)*; CF3 = FC(F)(F)*
Molecular target: SARS-CoV 3CL^pro (Severe acute respiratory syndrome coronavirus, UniProt P0C6X7)
Assay type: biochemical

CC(C)C[C@H](NC(=O)[C@@H](NC(=O)[C@H](C)NC(=O)OCc1ccccc1)C(C)C)C(=O)N[C@@H](CCC(N)=O)C(=O)C(F)(F)F [Compound 4, (S)-4-[N-(Benzyloxycarbonyl)-L-alanyl-L-valyl-L-leucyl]amino-6,6,6-trifluoro-5-oxohexanamide] (Cbz-AVLQ-CF3)
inhibitory activity in words: moderate SARS-CoV 3CL^pro inhibitors
